Each compound was assayed against HIV-1 PR (Human immunodeficiency virus type 1 group M subtype B, UniProt P04585) (assay: HIV-protease inhibitory activity assay (FRET peptide substrate)). Details: Test Example 1.
Format: biochemical
Procedure, shortened: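 Compounds were preincubated with HIV-1 PR (0.83 ng) at room temperature in pH 4.8 NaAc buffer (0.5 M NaCl, EDTA, DTT, Tween 20), then HiLyte Fluor 488/QXL 520 FRET peptide (2 μmol/L final) was added for 60 min. Fluorescence was read at 485/535 nm, and IC50 was fitted by four-parameter logistic regression.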
`CC(C)CN(CC(O)C(Cc1ccc(OCc2ccccc2-c2sc3c(c2C(=O)O)CC(C)(C)CC3)cc1)NC(=O)OC1COC2(C)OCCC12)S(=O)(=O)c1ccc2nc(NC3CCN(C4CCCC4)CC3)sc2c1` (stereo not shown) [Compound I-792] showed an IC50 of 25 nM. Compound `CC(C)CN(CC(O)C(Cc1ccc(OCc2ccccc2-c2sc3c(c2C(=O)O)CC(C)(C)CC3)cc1)NC(=O)OC1COC2(C)OCCC12)S(=O)(=O)c1ccc2nc(N(C)CCc3ccccc3)sc2c1` (stereo not shown) [Compound I-794] has an IC50 of 38.4 nM. `Cc1cc(OCCNc2nc3ccc(S(=O)(=O)N(CC(C)C)CC(O)C(Cc4ccccc4)NC(=O)OC4COC5(C)OCCC45)cc3s2)ccc1-c1sc2c(c1C(=O)O)CC(C)(C)CC2` (stereo not shown) [Compound I-797] was tested, and the IC50 was 0.85 nM. `COc1ccc(S(=O)(=O)N(CC(C)C)CC(O)C(Cc2ccc(OCCn3nc(C)c(-c4sc5c(c4C(=O)O)CC(C)(C)CC5)c3C)cc2)NC(=O)OC2COC3OCCC23)cc1` (stereo not shown) [Compound I-810] was tested, and the IC50 was 1.03 nM. `COc1ccc(S(=O)(=O)N(CC(C)C)CC(O)C(Cc2ccc(COc3ccc4c(c3C(=O)O)CC(C)(C)CC4)cc2)NC(=O)OC2COC3OCCC23)cc1` (stereo not shown) [Compound I-811] showed an IC50 of 0.81 nM. For `CC(C)CN(CC(O)C(Cc1ccc(OCc2ccc(-c3ccc(F)cc3F)cc2O)cc1)NC(=O)OC1COC2OCCC12)S(=O)(=O)c1ccc2ncsc2c1` (stereo not shown) [Compound I-813], the IC50 was 1.06 nM. In the case of `CC(C)CN(CC(O)C(Cc1ccc(OCCOc2ccc(-c3ccc(F)cc3F)cc2C(=O)O)cc1)NC(=O)OC1COC2OCCC12)S(=O)(=O)c1ccc2ncsc2c1` (stereo not shown) [Compound I-814], the IC50 is reported as 0.75 nM. `COc1ccc(S(=O)(=O)N(CC(C)C)CC(O)C(Cc2ccc(OCc3ccccc3-c3sc4c(c3-c3noc(=O)[nH]3)CC(C)(C)CC4)cc2)NC(=O)OC2COC3OCCC23)cc1` (stereo not shown) [Compound I-815] gave an IC50 of 1.63 nM. With `CC(C)CN(CC(O)C(Cc1ccccc1)NC(=O)OC1COC2OCCC12)S(=O)(=O)c1ccc(NCc2sc3c(c2C(=O)O)CC(C)(C)CC3)cc1` (stereo not shown) [Compound I-816] the IC50 was 5.78 nM. For `COc1ccc(S(=O)(=O)N(CC(C)C)CC(O)C(Cc2ccc(CNC(=O)c3cc(-c4ccc(F)cc4F)ccc3O)cc2)NC(=O)OC2COC3OCCC23)cc1` (stereo not shown) [Compound I-817], the IC50 was 1.56 nM. Compound `CC(C)CN(CC(O)C(Cc1ccc(OCc2sc(Oc3ccccc3)nc2C(=O)O)cc1)NC(=O)OC1COC2OCCC12)S(=O)(=O)c1ccc2ncsc2c1` (stereo not shown) [Compound I-818] has an IC50 of 0.64 nM. `COc1ccc(S(=O)(=O)N(CC(C)C)CC(O)C(Cc2ccc(OCc3ccc4sc(-c5ccc(F)cc5)c(C(=O)O)c4c3)cc2)NC(=O)OC2COC3OCCC23)cc1` (stereo not shown) [Compound I-819] was tested, and the IC50 was 0.72 nM. For `COc1ccc(S(=O)(=O)N(CC(C)C)CC(O)C(Cc2ccc(OCc3ccccc3-c3nc(C4=CCC(C)(C)CC4)sc3C(=O)O)cc2)NC(=O)OC2COC3OCCC23)cc1` (stereo not shown) [Compound I-820], the IC50 was 0.94 nM. `COc1ccc(S(=O)(=O)N(CC(C)C)CC(O)C(Cc2ccc(OCc3ccccc3-c3ccc4c(O)c(-c5ccc(Oc6ccccc6)cc5)c(=O)[nH]c4c3)cc2)NC(=O)OC2COC3OCCC23)cc1` (stereo not shown) [Compound I-821] showed an IC50 of 2.24 nM. Work on `COc1ccc(S(=O)(=O)N(CC(C)C)CC(O)C(Cc2ccc(OCc3ccccc3-c3ccc4c(O)c(-c5ccc(Oc6ccccc6)cc5)c(=O)n(C)c4c3)cc2)NC(=O)OC2COC3OCCC23)cc1` (stereo not shown) [Compound I-822] yielded an IC50 of 2.08 nM. With `COc1ccc(S(=O)(=O)N(CC(C)C)CC(O)C(Cc2ccc(OCc3ccccc3-c3sc(C)c(-c4ccccc4)c3C(=O)O)cc2)NC(=O)OC2COC3OCCC23)cc1` (stereo not shown) [Compound I-824] the IC50 was 1.01 nM. `COc1ccc(S(=O)(=O)N(CC(C)C)CC(O)C(Cc2ccc(OCc3ncsc3-c3sc4c(c3C(=O)O)CC(C)(C)CC4)cc2)NC(=O)OC2COC3OCCC23)cc1` (stereo not shown) [Compound I-828] gave an IC50 of 0.96 nM. With `COc1ccc(S(=O)(=O)N(CC(C)C)CC(O)C(Cc2ccc(OCc3ccccc3-c3sc4c(c3C(=O)O)C3CC(C4)C3(C)C)cc2)NC(=O)OC2COC3OCCC23)cc1` (stereo not shown) [Compound I-829] the IC50 was 1.2 nM. `CC(C)CN(CC(O)C(Cc1ccc(CCc2sc3c(c2C(=O)O)CC(C)(C)CC3)cc1)NC(=O)OC1COC2OCCC12)S(=O)(=O)c1ccc2ncsc2c1` (stereo not shown) [Compound I-831] showed an IC50 of 1.49 nM. Compound `COc1ccc(S(=O)(=O)N(CC(C)C)CC(O)C(Cc2ccc(OCc3ccccc3-c3sc4c(c3C(=O)O)CCC(=O)C4)cc2)NC(=O)OC2COC3OCCC23)cc1` (stereo not shown) [Compound I-833] has an IC50 of 1.54 nM. `COc1ccc(S(=O)(=O)N(CC(C)C)CC(O)C(Cc2ccc(OCc3ccccc3-c3oc4c(c3C(=O)O)CCCC4)cc2)NC(=O)OC2COC3OCCC23)cc1` (stereo not shown) [Compound I-834] showed an IC50 of 1.15 nM. Compound `COc1ccc(S(=O)(=O)N(CC(C)C)CC(O)C(Cc2ccc(OCc3ccccc3-n3nc(C(=O)O)c4c3CCC(C)(C)C4)cc2)NC(=O)OC2COC3OCCC23)cc1` (stereo not shown) [Compound I-837] has an IC50 of 0.82 nM. `COc1ccc(S(=O)(=O)N(CC2CCC(=O)N2)CC(O)C(Cc2ccc(OCc3ccccc3-c3sc4c(c3C(=O)O)CC(C)(C)CC4)cc2)NC(=O)OC2COC3OCCC23)cc1` (stereo not shown) [Compound I-838] showed an IC50 of 0.76 nM. `CC(C)CN(CC(O)C(Cc1ccc(OCc2ccc(-c3ccc(F)cc3F)nc2C(=O)O)cc1)NC(=O)OC1COC2OCCC12)S(=O)(=O)c1ccc2ncsc2c1` (stereo not shown) [Compound I-840] showed an IC50 of 0.71 nM. In the case of `CC(C)CN(CC(O)C(Cc1ccc(OCc2nc(Oc3ccccc3)sc2C(=O)O)cc1)NC(=O)OC1COC2OCCC12)S(=O)(=O)c1ccc2ncsc2c1` (stereo not shown) [Compound I-842], the IC50 is reported as 0.69 nM. `COc1ccc(S(=O)(=O)N(CC(C)C)CC(O)C(Cc2ccc(OCc3ccccc3-c3sc(Oc4ccccc4)nc3C(=O)O)cc2)NC(=O)OC2COC3OCCC23)cc1` (stereo not shown) [Compound I-843] gave an IC50 of 1.33 nM. Work on `COc1ccc(S(=O)(=O)N(CC(C)C)CC(O)C(Cc2ccc(OCc3ccccc3-c3sc(N4CCC(C)(C)CC4)nc3C(=O)O)cc2)NC(=O)OC2COC3OCCC23)cc1` (stereo not shown) [Compound I-844] yielded an IC50 of 1.01 nM. Work on `COc1ccc(S(=O)(=O)N(CC(C)C)CC(O)C(Cc2ccc(OCc3ccccc3-c3sc(N4CCC(C)(C)CC4)nc3C(=O)O)cc2)NC(=O)OC2COC3OCCC23)cc1` (stereo not shown) [Compound I-845] yielded an IC50 of 0.85 nM. Compound `COc1ccc(S(=O)(=O)N(CC(C)C)CC(O)C(Cc2ccc(OCc3ccccc3-c3sc(N4CCCC(C)(C)C4)nc3C(=O)O)cc2)NC(=O)OC2COC3OCCC23)cc1` (stereo not shown) [Compound I-846] has an IC50 of 1.2 nM. `COc1ccc(S(=O)(=O)N(CC(C)C)CC(O)C(Cc2ccc(OCc3ccccc3-c3sc(-c4ccccc4)cc3C(=O)O)cc2)NC(=O)OC2COC3OCCC23)cc1` (stereo not shown) [Compound I-848] showed an IC50 of 0.89 nM. `COc1ccc(S(=O)(=O)N(CC(C)C)CC(O)C(Cc2ccc(OCc3ccccc3-c3sc(Cl)c(-c4ccccc4)c3C(=O)O)cc2)NC(=O)OC2COC3OCCC23)cc1` (stereo not shown) [Compound I-849] was tested, and the IC50 was 0.78 nM. With `COc1ccc(S(=O)(=O)N(CC(C)C)CC(O)C(Cc2ccc(OCc3ccccc3-c3sc(Cl)c(CC(C)C)c3C(=O)O)cc2)NC(=O)OC2COC3OCCC23)cc1` (stereo not shown) [Compound I-850] the IC50 was 1.03 nM. Work on `COc1ccc(S(=O)(=O)N(CC(C)C)CC(O)C(Cc2ccc(NCc3ccccc3-c3sc4c(c3C(=O)O)CC(C)(C)CC4)cc2)NC(=O)OC2COC3OCC(OC)C23)cc1` (stereo not shown) [Compound I-853] yielded an IC50 of 1.98 nM. `CC(C)CN(CC(O)C(Cc1ccc(NCc2ccccc2C(=O)Nc2sc3c(c2C(=O)O)CC(C)(C)CC3)cc1)NC(=O)OC1COC2OCCC12)S(=O)(=O)c1ccc2c(c1)OCO2` (stereo not shown) [Compound I-854] showed an IC50 of 3.16 nM. For `CC(C)CN(CC(O)C(Cc1ccc(NCc2ccccc2C(=O)Nc2sc3c(c2C(=O)O)CC(C)(C)CC3)cc1)NC(=O)OC1COC2OCCC12)S(=O)(=O)c1ccc2ncsc2c1` (stereo not shown) [Compound I-855], the IC50 was 2.66 nM. `COc1ccc(S(=O)(=O)N(CC(C)C)CC(O)C(Cc2ccc(N3CCC(C(=O)N(C)c4sc5c(c4C(=O)O)CC(C)(C)CC5)C3)cc2)NC(=O)OC2COC3OCCC23)cc1` (stereo not shown) [Compound I-863] showed an IC50 of 2.55 nM. Compound `COc1ccc(S(=O)(=O)N(CC(C)C)CC(O)C(Cc2ccc(N(C)CCOc3ccccc3-c3sc4c(c3C(=O)O)CC(C)(C)CC4)cc2)NC(=O)OC2COC3OCCC23)cc1` (stereo not shown) [Compound I-864] has an IC50 of 2.25 nM. Compound `COc1ccc(S(=O)(=O)N(CC(C)C)CC(O)C(Cc2ccc(N3CCC(C(=O)Nc4sc5c(c4C(=O)O)CC(C)(C)CC5)C3)cc2)NC(=O)OC2COC3OCCC23)cc1` (stereo not shown) [Compound I-865] has an IC50 of 2.21 nM. With `COc1ccc(S(=O)(=O)N(CC(C)C)CC(O)C(Cc2ccc(NCc3cc(C(F)(F)F)ccc3-c3sc4c(c3C(=O)O)CC(C)(C)CC4)cc2)NC(=O)OC2COC3OCCC23)cc1` (stereo not shown) [Compound I-868] the IC50 was 4.3 nM. `COc1ccc(S(=O)(=O)N(CC2CCCC2)CC(O)C(Cc2ccc(NCc3cc(C(F)(F)F)ccc3-c3sc4c(c3C(=O)O)CC(C)(C)CC4)cc2)NC(=O)OC2COC3OCCC23)cc1` (stereo not shown) [Compound I-870] gave an IC50 of 9.33 nM. Work on `CC(C)CN(CC(O)C(Cc1ccc(NCc2cc(C(F)(F)F)ccc2-c2sc3c(c2C(=O)O)CC(C)(C)CC3)cc1)NC(=O)OC1COC2OCCC12)S(=O)(=O)c1ccc2ncsc2c1` (stereo not shown) [Compound I-871] yielded an IC50 of 4.93 nM. Compound `CC1(C)CCc2sc(-c3ccc(C(F)(F)F)cc3CNc3ccc(CC(NC(=O)OC4COC5OCCC45)C(O)CN(CC4CCC4)S(=O)(=O)c4ccc5ncsc5c4)cc3)c(C(=O)O)c2C1` (stereo not shown) [Compound I-872] has an IC50 of 4.99 nM. Compound `CC1(C)CCc2sc(-c3ccc(C(F)(F)F)cc3CNc3ccc(CC(NC(=O)OC4COC5OCCC45)C(O)CN(CC4CCCC4)S(=O)(=O)c4ccc5ncsc5c4)cc3)c(C(=O)O)c2C1` (stereo not shown) [Compound I-873] has an IC50 of 8.43 nM. `CC(C)CN(CC(O)C(Cc1ccc(NCc2cc(C(F)(F)F)ccc2-c2sc3c(c2C(=O)O)CC(C)(C)CC3)cc1)NC(=O)OC1COC2OCCC12)S(=O)(=O)c1ccc2c(c1)OCO2` (stereo not shown) [Compound I-874] was tested, and the IC50 was 5.12 nM. `CC1(C)CCc2sc(-c3ccc(C(F)(F)F)cc3CNc3ccc(CC(NC(=O)OC4COC5OCCC45)C(O)CN(CC4CCC4)S(=O)(=O)c4ccc5c(c4)OCO5)cc3)c(C(=O)O)c2C1` (stereo not shown) [Compound I-875] was tested, and the IC50 was 6.78 nM. Compound `CC1(C)CCc2sc(-c3ccc(C(F)(F)F)cc3CNc3ccc(CC(NC(=O)OC4COC5OCCC45)C(O)CN(CC4CCCC4)S(=O)(=O)c4ccc5c(c4)OCO5)cc3)c(C(=O)O)c2C1` (stereo not shown) [Compound I-876] has an IC50 of 7.13 nM.

Reference: US20170253607A1, “LONG-ACTING HIV PROTEASE INHIBITOR” (Shionogi & Co., Ltd., priority 2014, published 2017)
